Test results from patent US6046238A, “Method for treating or preventing the spread of acne vulgaris” (TriStrata, Inc., priority 1999, dated 2000).
“Also recorded” adds a separate entry of the source.

Assay: prophylactic effect in preventing the development of axillary foul odor
Assay type: in vivo, human
Settings: Example 5; 0.5% solution, topical; one person; up to 24 hours
Method: A typical test for prophylactic effect in preventing the development of axillary foul odor was carried out as follows. A test composition was prepared by dissolving 0.5 g of phenyl 2-acetoxyethanoic acid or diphenyl 2-acetoxyethanoic acid in 70 ml of ethanol and 30 ml of propylene glycol. The control vehicle was prepared by mixing 70 ml of ethanol and 30 ml of propylene glycol. A human subject was instructed to take a shower in the morning using ordinary soap to clean the body surfaces. After the skin was dried, the test composition was topically applied to the left underarm area only. The vehicle control was topically applied to the right underarm area. Both underarm areas were monitored by the subject and at least one other person approximately every 8 hours to determine whether the test composition had any prophylactic effect in preventing the development of underarm foul odor in the left axilla as compared to the vehicle alone on the right control armpit.
Presence or substantial absence of foul odor, detected by smell, was adopted as the criteria for ineffectiveness or effectiveness of the test composition.
A total of seven subjects (four females; three males) participated in several studies. Most of these subjects could not use existing commercial products of antiperspirants or deodorants because of severe irritation after topical application. […]

## CC(=O)OC(C(=O)O)c1ccccc1 (stereo not shown) [phenyl 2-acetoxyethanoic acid]
  prevention of axillary foul odor (left underarm): did not produce any detectable odor, even after 24 hours; also recorded: substantially effective in preventing the development of axillary foul odor
